Reference: patent US7125881B2, “Use of pyrimidine—or triazine—2 carbonitiles for treating diseases associated with cysteine prostease activity and novel pyrimidine-2-carbonitile derivatives” (AstraZeneca AB, priority 2002, dated 2006)
Structures can show the parent of a compound that is named as a salt.

Row | SMILES | melting point [°C]
1 | COc1c(Nc2ccc(Cl)cc2)nc(C#N)nc1N1CCNCC1 (as salt: trifluoroacetate) [Example 44, 4-[(4-Chlorophenyl)amino]-5-methoxy-6-piperazin-1-ylpyrimidine-2-carbonitrile] | 230
2 | COc1c(Nc2ccc(Cl)cc2)nc(C#N)nc1N(C)C [Example 48, 4-[(4-Chlorophenyl)amino]-6-(dimethylamino)5-methoxypyrimidine-2-carbonitrile] | 173
3 | COc1c(Nc2ccc(Cl)cc2)nc(C#N)nc1N1CC[C@H](N)C1 (as salt: trifluoroacetate) [Example 46, 4-[(3S)-3-Aminopyrrolidin-1-yl]-6-[(4-chlorophenyl)amino]-5-methoxypyrimidine-2-carbonitrile] | 345 to 347
4 | COc1c(Nc2ccc(Cl)cc2)nc(C#N)nc1N1CCNC(=O)C1 [Example 49, 4-[(4-Chlorophenyl)amino]-5-methoxy-6(3-oxopiperazin-1-yl)pyrimidine-2-carbonitrile] | 244
5 | CCNc1nc(C#N)nc(Nc2ccc(Cl)cc2)c1N [Example 53, 5-Amino-4[(4-Chlorophenyl)amino]-6(ethylamino)pyrimidine-2-carbonitrile] | 211 to 212
6 | COc1c(Nc2ccc(Cl)cc2)nc(C#N)nc1N1CCOCC1 [Example 45, 4-[(4-Chlorophenyl)amino]-5-methoxy-6-morpholin-4-ylpyrimidine-2-carbonitrile] | 176
7 | COc1c(Nc2ccc(Cl)cc2)nc(C#N)nc1N1CCN(CCCN(C)C)CC1 (as salt: trifluoroacetate) [Example 47, 4-[(4-Chlorophenyl)amino]-6-{4-[3-(dimethylamino)propyl]piperazin-1-yl}-5-methoxypyrimidine-2-carbonitrile] | 210 to 212
8 | N#Cc1nc(Nc2ccc(Cl)cc2)c(N)c(N2CCOCC2)n1 [Example 52, 5-Amino-4-[(4-chlorophenyl)amino]-6-morpholin-4-ylpyrimidine-2-carbonitrile] | 253 to 254
